One may read the EC50 as the concentration that produces a half-maximal response.

Results on two compounds are retold here after article PMC8955485, “Journey on VX-809-Based Hybrid Derivatives towards Drug-like F508del-CFTR Correctors: From Molecular Modeling to Chemical Synthesis and Biological Assays” (Pharmaceuticals, 2022).

Test [1] addresses T1, F508del-CFTR (Homo sapiens, UniProt P13569, DEL508-508). The experiment in a line: HS-YFP functional assay for F508del-CFTR correctors in CFBE41o- cells. Format: cell-based. More on the design: expressed in transfected cells. The note with it: CFBE41o- cells stably expressing F508del-CFTR and HS-YFP; 24 h incubation; stimulation with forskolin 20 µM plus VX-770 1 µM.
The target of test [2] is T1, F508del-CFTR. The experiment in a line: Western blot analysis of CFTR expression pattern (C band/B band ratio). Format: cell-based. More on the design: expressed in transfected cells. To be noted: F508del-CFTR/HS-YFP CFBE41o- cells; 24 h; 50 nM and 1 µM; versus DMSO. From the text:
We then biochemically estimated the rescue of the trafficking defect by analyzing the electrophoretic mobility of mutant CFTR protein. In Western blots, CFTR protein can be detected as two bands B and C, of approximately 150 and 170 kDa, respectively. Band B corresponds to immature, partially glycosylated CFTR, while band C corresponds to the mature fully glycosylated CFTR. In cells expressing wild-type CFTR protein, the prevalent form is band C, while the main form in cells expressing F508del-CFTR is band B, in agreement with the severe trafficking defect caused by this mutation (Figure 8). To estimate the effect of our molecules on CFTR expression pattern, we treated F508del-CFTR/HS-YFP expressing CFBE41o-cells for 24 h with test compounds 9b, 9g, and 9j (50 nM and 1 µM) VX-809 as a positive control or DMSO as a vehicle alone.
The next day, cells were lysed and the obtained lysates were subjected to SDS-PAGE followed by Western blotting (Figure 8A). Western blot images were analyzed with ImageJ software. CFTR bands, analyzed as ROI, were quantified in each lane after normalization for GAPDH as a loading control. […]
Supernatant protein concentration was calculated using the BCA assay (Euroclone, Milan, Italy). For each sample, 10 μg of total proteins was resolved in 4–20% gradient Criterion TGX precast gels, transferred to nitrocellulose membranes (using a Trans-Blot Turbo system; Bio-Rad, Hercules, CA, USA), and analyzed by Western blotting. Proteins were detected using the antibodies described above and subsequently visualized by chemiluminescence using the SuperSignal West Femto Substrate (Thermo Fisher Scientific, Waltham, MA, USA). […] Images were analyzed with ImageJ software (NIH). Bands were analyzed as ROI, normalized against the GAPDH loading control.
Figure 8 Biochemical analysis of the F508del-CFTR expression pattern: (A). […] Quantification of the C band/B band ratio in experiments as in (A). […]
Background: In western blotting, separated proteins are transferred to a membrane and probed.

T1 sequence (P13569 with tags, fused parts or gaps DEL508-508): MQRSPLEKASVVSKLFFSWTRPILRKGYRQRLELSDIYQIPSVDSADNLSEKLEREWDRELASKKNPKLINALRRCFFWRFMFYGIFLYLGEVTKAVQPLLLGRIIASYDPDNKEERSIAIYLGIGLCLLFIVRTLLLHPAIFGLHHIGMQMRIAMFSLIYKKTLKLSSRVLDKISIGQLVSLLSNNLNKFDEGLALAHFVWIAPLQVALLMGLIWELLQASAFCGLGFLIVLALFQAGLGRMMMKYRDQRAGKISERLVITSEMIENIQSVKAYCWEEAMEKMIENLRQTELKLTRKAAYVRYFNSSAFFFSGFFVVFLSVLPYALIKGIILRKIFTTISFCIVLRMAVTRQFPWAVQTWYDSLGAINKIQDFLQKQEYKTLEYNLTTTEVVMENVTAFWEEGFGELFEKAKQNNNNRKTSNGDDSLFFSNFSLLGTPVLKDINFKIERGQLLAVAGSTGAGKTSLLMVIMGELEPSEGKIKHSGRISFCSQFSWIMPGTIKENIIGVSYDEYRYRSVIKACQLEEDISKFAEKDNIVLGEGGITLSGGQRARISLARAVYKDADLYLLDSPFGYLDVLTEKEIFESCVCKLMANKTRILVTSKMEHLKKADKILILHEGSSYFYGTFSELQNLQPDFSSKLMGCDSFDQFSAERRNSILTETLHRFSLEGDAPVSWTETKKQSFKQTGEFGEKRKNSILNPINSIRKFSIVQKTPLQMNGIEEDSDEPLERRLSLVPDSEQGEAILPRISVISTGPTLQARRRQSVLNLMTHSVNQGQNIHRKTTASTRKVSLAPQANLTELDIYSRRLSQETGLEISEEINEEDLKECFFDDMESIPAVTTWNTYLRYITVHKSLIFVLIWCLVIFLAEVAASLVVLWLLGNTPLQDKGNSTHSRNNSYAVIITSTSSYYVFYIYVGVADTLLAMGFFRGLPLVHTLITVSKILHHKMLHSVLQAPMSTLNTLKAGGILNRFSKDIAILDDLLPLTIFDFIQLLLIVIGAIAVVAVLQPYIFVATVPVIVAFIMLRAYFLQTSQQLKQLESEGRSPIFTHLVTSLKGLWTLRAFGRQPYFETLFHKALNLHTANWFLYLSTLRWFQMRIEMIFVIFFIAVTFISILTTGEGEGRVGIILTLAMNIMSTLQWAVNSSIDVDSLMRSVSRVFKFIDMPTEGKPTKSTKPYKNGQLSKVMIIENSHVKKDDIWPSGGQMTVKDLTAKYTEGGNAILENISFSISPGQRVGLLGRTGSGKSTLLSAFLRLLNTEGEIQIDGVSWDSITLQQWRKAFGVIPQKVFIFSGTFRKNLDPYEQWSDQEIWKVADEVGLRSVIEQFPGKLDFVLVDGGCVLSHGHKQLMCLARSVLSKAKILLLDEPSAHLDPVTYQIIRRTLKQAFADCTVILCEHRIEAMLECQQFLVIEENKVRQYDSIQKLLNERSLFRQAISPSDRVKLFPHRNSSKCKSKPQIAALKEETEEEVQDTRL

For `COc1ccc(-c2nc(NC(=O)C3(c4ccc5c(c4)OCO5)CC3)sc2C(=O)c2ccc(N3CCCC3)cc2)cc1` [Compound 9g], the EC50 at F508del-CFTR [1] was found to be 33 nM. Moreover, at F508del-CFTR [2], the “C band/B band ratio” value was “significant enhancement”.

In the case of `COc1cccc(-c2nc(NC(=O)C3(c4ccc5c(c4)OCO5)CC3)sc2C(=O)c2ccc(OC(F)(F)F)cc2)c1` [Compound 9j], the EC50 at F508del-CFTR [1] was 37 nM. The “C band/B band ratio” value at F508del-CFTR [2] is recorded as “significant enhancement”.
